In general, EC50 refers to the concentration that produces a half-maximal response. Higher therefore signals weaker potency.

In one assay the target is T1, human Endothelial Differentiation Gene 1 (EDG1) (Homo sapiens, UniProt P21453).
T1 construct: TEV protease site; Gal4-VP16 transcription factor; expressed in transfected cells; host or cells: EDG1-bla/U2OS (Tango GPCR-bla U2OS parental cell line)
T1 sequence (P21453 whole entry, the tested form may be a part): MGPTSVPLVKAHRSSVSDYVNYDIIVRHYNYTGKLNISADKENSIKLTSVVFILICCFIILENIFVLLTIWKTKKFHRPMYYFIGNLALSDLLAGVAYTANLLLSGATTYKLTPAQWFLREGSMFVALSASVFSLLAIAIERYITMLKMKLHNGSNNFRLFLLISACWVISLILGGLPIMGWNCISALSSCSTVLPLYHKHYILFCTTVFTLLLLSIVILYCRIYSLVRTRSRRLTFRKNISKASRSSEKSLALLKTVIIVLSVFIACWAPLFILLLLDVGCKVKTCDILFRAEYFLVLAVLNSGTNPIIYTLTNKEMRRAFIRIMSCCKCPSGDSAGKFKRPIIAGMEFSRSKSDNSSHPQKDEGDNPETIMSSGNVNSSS
Kind of assay: S1P1 Tango assay - 96 well format. The format is cell-based. The conditions noted are these: EDG1-bla/U2OS cells, agonist. The method, then: S1P1 Tango assay—96 Well Format
Recombinant EDG1-bla/U2OS cells (contain the human Endothelial Differentiation Gene 1 (EDG1) linked to a TEV protease site and a Gal4-VP16 transcription factor stably integrated into the Tango GPCR-bla U2OS parental cell line) were suspended in assay medium (Invitrogen Freestyle Expression Medium) at a density of 312, 500 cells/ml. Add 100 μl/well of the assay medium to the cell-free control wells (column 12) and 100 μl/well of the cell suspension to the test compound wells (row 2-8, column 1-10), the unstimulated control wells (DMSO) (column 11), and stimulated control wells (SIP) (row 1, column 1-10) in a Corning black-well, clear bottom 96-well plate. Cells were incubated at 37° C., 5% CO2 for 44-48 h.
Add 25 μl of 5× stock solution of test compounds in assay medium with 0.5% DMSO to the test compound wells, 25 μl of 5× stock solution of agonist (S1P) in assay medium with 0.5% DMSO to the stimulated compound wells, and 25 μl of 5× stock solution of 0.5% DMSO in assay medium to the unstimulated control and cell-free control wells.
After incubation at 37° C., 5% CO2 for 5 h, 25 μl of 6× substrate mixture (6 μl Solution A (1 mg LiveBLAzer™-FRET B/G substrate (CCF4-AM) in 912 μl DMSO) plus 60 μl Solution B plus 934 μl Solution C) was added to each well and incubate at room temperature for 2 h in dark. The plate was finally read on EnVision for two emission channels (460 nm and 530 nm).
All test compounds were dissolved in DMSO at a concentration of 10 mM and were prepared in 100% DMSO using a 1 in 5 dilution step to provide 10 point dose response curves. The dilutions were transferred to the assay plates ensuring that the DMSO concentration was constant across the plate for all assays.
Calculate the blue/green emission ratio (460 nm/530 nm) for each well, by dividing the background-subtracted Blue emission values by the background-subtracted Green emission values. The dose response curve is based on sigmoidal dose-response model. […]
For `Cc1c(C[C@@H](C)C(=O)O)cccc1-c1noc(-c2cnc(OC(C)C)c(Cl)c2)n1` [Example 3, (2R)-3-[3-(5-{5-chloro-6-[(1-methylethyl)oxy]-3-pyridinyl}-1,2,4-oxadiazol-3-yl)-2-methylphenyl]-2-methylpropanoic acid], the EC50 is greater than 1000 nM.
As to `CC(C)Oc1ccc(-c2nc(-c3ccnc(CCCC(=O)O)c3)no2)cc1C#N` [Example 21, 4-[4-(5-{3-cyano-4-[(1-methylethyl)oxy]phenyl}-1,2,4-oxadiazol-3-yl)-2-pyridinyl]butanoic acid], the concentration for a half-maximal effect (EC50) was greater than 1000 nM.
Take `Cc1c(CCCC(=O)O)cccc1-c1noc(-c2cnc(OC(C)C)c(Cl)c2)n1` [Example 4, 4-[3-(5-{5-chloro-6-[(1-methylethyl)oxy]-3-pyridinyl}-1,2,4-oxadiazol-3-yl)-2-methylphenyl]butanoic acid]: the EC50 was greater than 1000 nM.

In a further assay the target is T1, human Endothelial Differentiation Gene 1 (EDG1). Briefly: S1P1 Tango assay - 384 well format. The conditions noted are these: EDG1-bla/U2OS cells, agonist. The format is cell-based. The method, then: S1P1 Tango assay—384 Well Format
Recombinant EDG1-bla/U2OS cells (contain the human Endothelial Differentiation Gene 1 (EDG1) linked to a TEV protease site and a Gal4-VP16 transcription factor stably integrated into the Tango GPCR-bla U2OS parental cell line) were harvested from growth medium and passaged into assay medium (Invitrogen Freestyle Expression Medium). The cells were starved for 24 hours at 37° C., 5% CO2, harvested and resuspended in assay medium at a density of ˜200,000 cells/ml. All test compounds were dissolved in DMSO at a concentration of 10 mM and were prepared in 100% DMSO to provide 10 point dose response curves. Test compounds prepared by Bravo (Velocity11) were added to wells in columns 2-11 and 13-22; DMSO was added to wells in columns 12 and 23 as unstimulated controls and assay medium was added to wells in columns 1 and 24 as cell-free controls. An S1P1 agonist was added to wells in row 2, columns 2-11 as stimulated controls and test compounds were added to wells in row 2, columns 13-22 and rows 3-15, columns 2-11/13-22 (row 1 and 16 were empty and not used). Compounds in solution were added to the assay plate (Greiner 781090) using an Echo (Labcyte) dose-response program (50 nl/well). The unstimulated and cell-free controls were loaded with 50 nl/well pure DMSO to ensure that the DMSO concentration was constant across the plate for all assays.
50 μl of the cell suspension was added to each well in columns 2-23 of the plate (˜10,000 cells per well). 50 μl of assay medium was added to each well in the cell-free controls (columns 1 and 24). The cells were incubated overnight at 37° C./5% CO2.
10 μl of 6× substrate mixture (LiveBLAzer™-FRET B/G substrate (CCF4-AM) Cat #K1096 from Invitrogen, Inc.) was added to each well using Bravo and the plates incubated at room temperature for 2 h in the dark. The plate was finally read on EnVision using one excitation channel (409 nm) and two emission channels (460 nm and 530 nm).
The blue/green emission ratio (460 nm/530 nm) was calculated for each well, by dividing the background-subtracted Blue emission values by the background-subtracted Green emission values. The dose response curve is based on sigmoidal dose-response model. All ratio data was normalized based upon the maximum emission ratio of positive control and minimum emission ratio of negative control (DMSO) on each plate. The intrinsic activity (IA) of each compound would be the normalized percentage of its maximum response after curve fitting.
Turning to `CCc1c(CCCC(=O)O)cccc1-c1noc(-c2ccc(OC(C)C)c(Cl)c2)n1` [Example 28, 4-[3-(5-{3-chloro-4-[(1-methylethyl)oxy]phenyl}-1,2,4-oxadiazol-3-yl)-2-ethylphenyl]butanoic acid], the EC50 is no more than 1 nM.
Still for that read-out and setting: the figure for `COc1c(CCC(=O)O)cc(F)cc1-c1noc(-c2cnc(OC(C)C)c(Cl)c2)n1` [Example 33, 3-[3-(5-{5-chloro-6-[(1-methylethyl)oxy]-3-pyridinyl}-1,2,4-oxadiazol-3-yl)-5-fluoro-2-(methyloxy)phenyl]propanoic acid] is no more than 100 nM.
The same measure, in the same setting: the result for `CC(C)Oc1ccc(-c2nc(-c3ccc(F)c(CCCC(=O)O)c3)no2)cc1C#N` [Example 23, 4-[5-(5-{3-cyano-4-[(1-methylethyl)oxy]phenyl}-1,2,4-oxadiazol-3-yl)-2-fluorophenyl]butanoic acid] reads no more than 1000 nM; that for `CCc1c(CCCC(=O)O)cccc1-c1noc(-c2ccc(OC(C)C)c(C#N)c2)n1` [Example 15, 4-[3-(5-{3-cyano-4-[(1-methylethyl)oxy]phenyl}-1,2,4-oxadiazol-3-yl)-2-ethylphenyl]butanoic acid], no more than 1 nM; that for `CC(C)Oc1ccc(-c2nc(-c3cccc(CCCC(=O)O)c3C(F)(F)F)no2)cc1C#N` [Example 25, 4-[3-(5-{3-cyano-4-[(1-methylethyl)oxy]phenyl}-1,2,4-oxadiazol-3-yl)-2-(trifluoromethyl)phenyl]butanoic acid], no more than 100 nM.
In the case of `CCc1c(CCN(C)CC(=O)O)cccc1-c1cnc(-c2ccc(OC(C)C)c(Cl)c2)s1` [Example 56, N-{2-[3-(2-{3-chloro-4-[(1-methylethyl)oxy]phenyl}-1,3-thiazol-5-yl)-2-ethylphenyl]ethyl}-N-methylglycine], the EC50 is no more than 10 nM.
The same measure, in the same setting: the result for `CCc1c(CN(C)CC(=O)O)cccc1-c1cnc(-c2ccc(OC(C)C)c(Cl)c2)s1` [Example 54, N-{[3-(2-{3-chloro-4-[(1-methylethyl)oxy]phenyl}-1,3-thiazol-5-yl)-2-ethylphenyl]methyl}-N-methylglycine] reads no more than 1000 nM; that for `CC(C)Oc1ccc(-c2nc(-c3cccc(CCCC(=O)O)c3Cl)no2)cc1C#N` [Example 11, 4-[2-chloro-3-(5-{3-cyano-4-[(1-methylethyl)oxy]phenyl}-1,2,4-oxadiazol-3-yl)phenyl]butanoic acid], no more than 1 nM.
Same read-out and setting: the figure for `CC(C)Oc1ccc(-c2nc(-c3ccc(F)c(CCC(=O)O)c3)no2)cc1C#N` [Example 22, 3-[5-(5-{3-cyano-4-[(1-methylethyl)oxy]phenyl}-1,2,4-oxadiazol-3-yl)-2-fluorophenyl]propanoic acid] is no more than 1000 nM; for `CCc1c(CCC(=O)O)cccc1-c1noc(-c2ccc(OC(C)C)c(Cl)c2)n1` [Example 29, 3-[3-(5-{3-chloro-4-[(1-methylethyl)oxy]phenyl}-1,2,4-oxadiazol-3-yl)-2-ethylphenyl]propanoic acid] it is no more than 1 nM.

For the origin of these results see US20120101134A1, “5-MEMBERED HETEROARYL DERIVATIVES USED AS SPHINGOSINE 1-PHOSPHATE RECEPTOR AGONISTS” (GLAXO GROUP LIMITED, priority 2009, published 2012).
